From PubChem BioAssay AID449764 (Southern Research Specialized Biocontainment Screening …, 2010)

System: Mycobacterium tuberculosis H37Rv growth inhibition, no glycerol
Assay: Mycobacterium tuberculosis H37Rv growth inhibition, no glycerol, confirmatory dose response (AID 449764);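 note: growth read after 7 days of incubation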

Structure (SMILES)	IC50 [µM]
CS(=O)(=O)c1ncc(Cl)c(C(=O)Nc2ccc(OC(F)F)cc2)n1	13.6
OCCCNc1cc(-c2ccnc(Nc3cccc(Cl)c3)n2)ccn1	73.3
O=C(OCC(=O)N1CCN(c2ccccc2)CC1)c1cnc(Cl)c(Cl)c1	27
CC(C)(C)C1CCc2sc(-c3nnc(CCl)o3)cc2C1 (stereo not drawn)	5.74
Cc1c2c(nc3ccccc13)CCC(C)C2 (stereo not drawn)	21.7
CC(C)(C)C1CCc2c(sc3nc(SCC(N)=O)nc(N)c23)C1 (stereo not drawn)	22.1
COc1ccccc1N(C)S(=O)(=O)c1ccc(C(=O)Nc2ccc3nc(C)sc3c2)cc1	51.1
CC1=NNC(=O)/C1=C\c1cn(-c2ccccc2)nc1-c1ccc(Cl)cc1	45.2
Cc1ccc(OC(=O)c2oc3ccc(F)cc3c2C)c(C)c1	12
C=C(CCC(=O)c1ccccc1)C(=O)c1ccccc1	18
COc1ccc(N/N=C(/N=Nc2nc(C)cc(=O)[nH]2)c2ccccc2)cc1	5.64
COc1ccc(C(=O)c2c(C(F)(F)F)oc3c2C(=O)c2ccccc2C3=O)cc1OC	16.7
CC(=O)n1cc(/C=C2/N=C(c3ccccc3)OC2=O)c2ccccc21	43.4
COc1ccc(C2(c3ccc(OC)cc3)NC(=O)N(CC(=O)Nc3ccc(OC(F)F)cc3)C2=O)cc1	25
C=CCOc1ccc2c(c1)C(=NO)c1cc(OCC=C)ccc1-2	28
CCOC(=O)CNC(=O)CNC(=O)c1nn(-c2ccc(OC)c(Cl)c2)c(=O)c2ccccc12	38
COc1ccc(C(=O)OCC(=O)c2ccc(Br)s2)c(OC)c1	73.6
COC(=O)c1[nH]c2cc(OC)ccc2c1NC(=O)CN1CCN(c2cccc(C)c2)C(C)C1 (stereo not drawn)	38.1
Cc1cc(N/N=C2/CCCc3ccccc32)nc2ccccc12	41.9
Cc1cc(C(=O)COC(=O)C2=COCCO2)c(C)n1-c1cccc(F)c1	9.64
CN(C)N=Nc1nc[nH]c1C(N)=O	5.04
O=C(COc1cccc(Oc2ccccc2)c1)Nc1ncccn1	50.4

Structure (SMILES)	IC50 [µM]
Cc1c(C(=O)N(C)C)sc2nc(-c3ccccn3)[nH]c(=O)c12	19.5
CCCOC(=O)c1ccc(-c2ccc(C=O)o2)cc1	21.1
Cc1[nH]c2ccccc2c1C(=O)COC(=O)c1ccc([N+](=O)[O-])s1	1.32
O=C1c2ccccc2-c2onc3ccc(Oc4ccccc4)c1c23	10.3
COc1ccc(-c2csc3nc(-c4ccccc4OC)oc(=O)c23)cc1	5.44
Oc1ccc(CN2CCc3ccccc3C2)c2cccnc12	72.7
CCOC1OC(=O)C(Cl)=C1Nc1ccccc1C (stereo not drawn)	3.39
C=CCN(CC=C)C(=S)NC(=O)c1ccc(-c2ccccc2)cc1	13.6
O=C(Nc1ccc2nsnc2c1)NC1CCCCC1	44.3
Oc1ccccc1NCC(O)Cn1ccc2ccccc21 (stereo not drawn)	11.5
O=c1c(C=Nc2ccc(Oc3ccccc3)cc2)c[nH]n1-c1cccc(Cl)n1	23.3
O=C(NC(C(=O)N/N=C/c1cccc2ccccc12)c1n[nH]c(=O)c2ccccc12)c1ccccc1 (stereo not drawn)	58.8
CCCOc1ccc(N2CC(C(=O)Nc3ccccn3)CC2=O)cc1 (stereo not drawn)	36.4
Cc1ccccc1N1CCN(C(=O)c2ccc(Oc3ccc(C(F)(F)F)cn3)cc2)CC1	30.2
O=C(c1ccc(-c2ccccc2)c(F)c1)C1CCCN(C(=O)c2cncs2)C1 (stereo not drawn)	32.5
Cc1ccc2nc(/C(C#N)=C/c3cn[nH]c3-c3ccc(F)cc3)[nH]c2c1	19.2
Cc1cc(/C=C2\SC(=Nc3ccc(F)cc3)NC2=O)c(C)n1-c1ccc(S(N)(=O)=O)cc1	22.7
CCOc1ccc(NC(=O)CSc2nc(O)c(C)c(=O)n2-c2ccc(F)cc2)cc1	34.7
Cc1nn(-c2ccccc2)c(N)c1N=Nc1ccc(Cl)cc1	52.1
CCN1CCN(Cc2ccc(NC(=O)c3ccc(C)c(/C=C/c4cnc(Nc5cc(N6CCNCC6)nc(C)n5)cn4)c3)cc2C(F)(F)F)CC1	66.6
Nc1nonc1C(=O)NCCNCc1c(OCc2ccccc2F)ccc2ccccc12	39.5
